System: surgical wound
Assay: meperidine subcutaneous infiltration as local anesthetic in exodontia and oral surgery, clinical observation over five years
Details: for blood loss per case: used as the local anesthetic
From the text: Normal healing after surgical and third molar procedures can result in painful sequelae up to 14 days after surgery, which frequently require after-hour intervention by the surgeon. Among these sequelae are localized osteotitis (dry socket), trismus, facial edema, and protracted bleeding. For the purposes of this invention, the definition of “healed extraction site” will be a surgical wound that presents as normal clinical dental ridge architecture with pink gingival tissue and without classic granulation tissue, erythema, or edema.
For subcutaneous injection buccal or labial to extraction sites, meperidine is delivered in a standard insulin syringe pre-loaded with 40 mg meperidine in preservative-free solution (available as 1 cc (100 mg) ampules or 1 cc (100 mg) multidose vials). […] Consequently, early on, the use of meperidine for oral surgery was standardized as preservative-free and limited to low doses of 5-20 mg per extraction site with a maximum of 120 mg for any one individual. […] The surgical procedure also involves the concurrent use of intravenous barbituates (hexibarbitol), 0.2 mg atropine, 2 mg dexarnethasone, and concurrent use of 100% oxygen. Nitrous oxide, 20-40%, may be used intermittently during the case to assist the phobic dental patient through the procedure. Additionally each patient is encouraged to take orally 2000 units of vitamin C (adult dose) the day before surgery and 2000 units per day for 5 days postoperatively. […] (A thiophene local anesthetic has been used on rare occasions.)
The infiltration process usually includes 5-15 mg in the dental sulcus with 2-3 mg infused in the attached gingiva. No periodontal ligament or intraosseous injection of meperidine is used.

[1] = healed extraction site, injection during surgery, five year period

Which “blood loss per case” value (four impacted third molars) does the source give for `Nc1ccccc1` [aminobenzene] here?
Its value is 70-150 cc.

What does the source list for `CCOC(=O)C1(c2ccccc2)CCN(C)CC1` [meperidine]?
cases presenting with pink surgical site tissue including the mucoperiostial flap (3-4 days post surgery): 60-80%; post-operative bleeding or wound management problems (10 months, April 2001 through February 2002, prophylactic antibiotics not always used): No post-operative bleeding or wound management problems developed; patients healed before day 5 postoperatively (before the dry socket can occur): 80%; time after injection at which rapid clotting is seen (during surgery): three; time for extraction socket to form a complete clot with no further bleeding (during surgery): 2 to 5 min; blood loss per case, rarely went over (four impacted third molars): ≤ 20 cc; blood loss per case (four impacted third molars): 2-10 cc; patients in whom healing occurred in 3-4 days [1]: 80%; patients in whom healing occurred in 5-10 days [1]: 5%; patients in whom healing occurred in 1 day [1]: 15%; intraoperatively cardiac monitored arrythmias (human, in vivo): disappeared; laryngiospasms requiring muscle paralyzing agents (human, in vivo): not experienced; paresthesia (human, in vivo): can occur; clinical numbness (immediate postoperative, infiltration): without any marked clinical numbness; post-operative infections (in 5 years): no post-operative infections; trismus or temeromandibular joint dysfunction requiring physical therapy (in 5 years): no cases; relief of oral surgical pain from extractions (infiltrated subcutaneously buccal or labial to extraction site): clinically relieve oral surgical pain; dry sockets (over 5 years): disappeared from the practice; time after suturing until clotting satisfactory for discharge (patient with a factor deficiency disease): 15 min; tissue reaction observed clinically (solution containing a preservative, subcutaneous injection at extraction sites): excessive facial edema and tissue necrosis; nausea (total body dose under 120 mg): rare

From patent US20080214506A1, “Novel use of ion channel active compound, meperidine, to mediate process of accelerated wound healing” (priority 2002, published 2008)
